Assay [1] concerns the target α-glucosidase (EC 3.2.1.20) (Saccharomyces cerevisiae, UniProt P53341). The assay can be described thus: α-Glucosidase inhibitory assay (pNPG substrate). The following applies: in vitro. The format is biochemical. On the procedure: The α-glucosidase inhibitory assay was performed according to a slightly modified method previously reported[21]^,[22]. In brief, a series of reaction solutions, including a fixed amount of α-glucosidase (10 unit/mL 3.75 µL), different concentrations of inhibitors (the tested compounds or positive controls, 37.5 µL), and sodium phosphate buffer (PBS, […], 0.1 M, pH 6.8), were incubated at 37 °C for 10 min. To initiate the reaction, 112.5 µL of pNPG (6.0 mM, as a substrate) was added into the pre-incubated mixtures, and the final volume of reaction system was kept at 750 µL. The p-nitrophenol released from pNPG substrate was used as the target substance to quantify the enzymatic activity. […] The negative control was prepared by adding PBS instead of α-glucosidase, the blank was prepared by adding solvent instead of tested compounds, and the inhibition rate was calculated as the following Equation (1). (1) (ODcontrol−ODcontrol blank)−(ODtest−ODtest blank)/ODcontrol−ODcontrol blank×100%

Assay [2] can be described thus: Sucrose-loading test (postprandial blood glucose). The assay is classed as in vivo, Kunming mice. Conditions: mice, 20 mg/kg by gavage, sucrose 2.5 g/kg, 0–120 min. On the procedure: The carbohydrate loading test was conducted according as Kato et al.[23] and Han et al.[24] reported, with slight modifications. Fifteen male Kunming mice (35–40 g) after an overnight fast were randomly divided into three groups (five mice per group). […] A blank control group was loaded with 0.5% CMC–Na solution only. The blood samples were collected from the mice’s tail vein at 0, 15, 30, 60, 90, and 120 min, and the blood glucose levels were determined by a glucose detection kit.

The target in assay [3] is T1, α-glucosidase (Saccharomyces cerevisiae, UniProt P53341). The assay can be described thus: Synchronous fluorescence spectra. The format is binding. The following applies: 7u 0–6 µM, 25 °C. The text has this: (§1) The synchronous fluorescence spectra of α-glucosidase in the absence and presence of compound 7u were scanned by setting the excitation and emission wavelength intervals (Δλ) at 15 and 60 nm, respectively. To eradicate the probability of re-absorption and inner filter effects in UV absorption, all of the fluorescence data were corrected for absorption of exciting light and emitted light, based on the Equation S1[3]^,[13].
T1 sequence (P53341 whole entry): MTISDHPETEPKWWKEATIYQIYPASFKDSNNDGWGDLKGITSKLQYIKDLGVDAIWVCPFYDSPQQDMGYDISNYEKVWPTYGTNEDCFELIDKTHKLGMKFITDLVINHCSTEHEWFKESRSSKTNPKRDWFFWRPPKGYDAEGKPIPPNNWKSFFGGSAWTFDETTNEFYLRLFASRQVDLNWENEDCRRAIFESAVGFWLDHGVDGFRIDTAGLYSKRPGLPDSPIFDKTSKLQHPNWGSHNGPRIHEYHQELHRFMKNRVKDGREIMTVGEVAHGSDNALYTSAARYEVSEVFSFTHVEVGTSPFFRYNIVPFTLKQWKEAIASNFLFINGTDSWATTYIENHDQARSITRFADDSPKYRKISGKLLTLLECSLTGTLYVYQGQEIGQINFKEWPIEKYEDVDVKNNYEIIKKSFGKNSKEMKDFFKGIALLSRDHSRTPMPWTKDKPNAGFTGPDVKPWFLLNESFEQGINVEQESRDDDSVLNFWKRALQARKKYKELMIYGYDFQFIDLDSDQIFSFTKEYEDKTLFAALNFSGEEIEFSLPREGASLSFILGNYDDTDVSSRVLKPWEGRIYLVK

The target in assay [4] is T1, α-glucosidase. The assay can be described thus: Isothermal titration calorimetry. The assay is classed as binding. Conditions: ITC, 25 °C. The protocol:
Titration of the compound 7u into the α-glucosidase was performed at 25 °C. All the solutions were prepared in 0.1 M PBS (pH 6.8). The α-glucosidase solution (2.5μM) was placed in the 1.3 ml sample cell of the calorimeter, and the injection syringe was loaded with the solution of 7u (30μM, in 0.05% DMSO). The solution of compound 7u was titrated into the sample cell at 25 °C as a progression of 25 injections of 10μL. The time delay between each two injections was 300 s. To ensure comprehensive mixing, all the sample was stirred at a speed of 300 rpm during experiment. The control experiments included the titration of the compound 7u solution into 0.1 M PBS (pH 6.8)[33–35].

For assay [5], the target named is T1, α-glucosidase. The assay can be described thus: Circular dichroism measurement. The assay is classed as binding. The following applies: 7u 0–4 µM, α-glucosidase 2 µM, 25 °C. On the procedure:
The CD measurements of α-glucosidase in the presence of compound 7u were conducted in far–UV region (190–250 nm), under nitrogen environment using a 1.0 mm path length cuvette. The concentration of α-glucosidase was maintained constant (2 µM) while the 7u concentration was varied as 0, 1, 2, and 4 µM. All observed CD spectra were recorded in 0.1 M PBS (pH 6.8) at 25 °C[13]^,[31].

Assay [6] deals with T1, α-glucosidase. The assay can be described thus: Kinetic analysis of inhibition type (Lineweaver–Burk / Michaelis–Menten). The assay is classed as biochemical. On the procedure:
To further explore the inhibitory characteristic of this type of compounds, kinetic studies of the selected compound 7u were performed[3]^,[13]^,[26]. Different final concentrations (0.5, 1, 2, 4, and 8 µM) of the inhibitor 7u around the IC50 values were chosen. The concentration of α-glucosidase was kept at 1 µM, and the pNPG concentrations varied from 2.0 to 12.0 mM in the absence and presence of compound 7u. The type of inhibition was analyzed on the basis of the Michaelis–Menten constant (Km) and maximal rate (Vmax) of the enzyme. The parameters were determined via Lineweaver–Burk plots, which was obtained by plotting enzyme reaction velocity (ν) and substrate (pNPG), namely, 1/ν versus 1/[pNPG]. The secondary plot slope against [7u] was also determined. The protein concentration was determined according to the Bradford method[27] using bovine serum albumin as the standard.

Another assay has as its system intestinal α-glucosidase. The assay can be described thus: Everted intestinal sleeve assay. More on the design: species or system Sprague–Dawley rats. On the procedure:
^1H NMR and ^13 C NMR spectra were carried out using a 500 MHz Avance spectrometer (Bruker, USA) or a Varian Mercury 400 MHz spectrometer. Chemical shifts were measured relative to the residual solvent peaks of CDCl3 with tetramethylsilane as the internal standard. High-resolution mass spectra were recorded on an AB SCIEX Triple TOF 5600+ spectrometer. The in vitro inhibitory activity and kinetic assay of α-glucosidase were measured by a microplate reader (Synergy HTX, BioTek Instruments Inc., Winooski, VT, USA). Fluorescence spectra were conducted on a spectrofluorometer (LS55, Perkin Elmer Inc., Waltham, MA, USA). […] Titration microcalorimetry measurement conducted on a Nano-ITC SV instrument (TA Instruments Ltd., UK). The surgeries were performed under anesthesia and all efforts were made to minimise animal suffering. The blood glucose levels were determined via a glucose detection kit (Robio Co., Ltd., Shanghai, China). […] The concentrations of glucose in the soaking solution and intestinal sleeve were detected using S-10 biosensor analyzer (Sieman Technology Co., Ltd., Shenzhen, China). All reaction progress was monitored by thin-layer chromatography (TLC) on silica gel GF254 (Qingdao Haiyang Chemical Co., Ltd., Qingdao, China) with ultraviolet detection. Reagents were purchased from commercial sources (Bodi Chemical Co., Ltd., Tianjin, China; Aladdin Industrial Co., Ltd., Shanghai, China), and used as received. α-Glucosidase (EC 3.2.1.20, Sigma-Aldrich Chemical, St. Louis, MO, USA); 4-nitrophenyl-α-D-glucopyranoside (pNPG) (99%, Macklin Biochemical Co., Ltd, Shanghai, China).
After a 12-h fasting, the jejunum of 200–220 g Sprague-Dawley […] was obtained. Then the proximal jejunum was flushed with pre-cold isotonic saline (4 °C) and cut into 3 cm-long segments. Each segment was weighed separately, everted and both ends were secured by tying knots. Then the sleeves were incubated (90 min at 37 °C) in mammalian Ringer’s solution containing sucrose (1.5 mM) and an appropriate concentration of the inhibitor (0.17 mM). Following the incubation, the concentrations of glucose in the soaking solution and intestinal sleeves were tested with biosensor analyzer (S-10). The total glucose concentration was calculated as glucose per gram of gut weight (mmol/g).

Assay [7] has as its target T1, α-glucosidase. The assay can be described thus: Fluorescence quenching and van't Hoff thermodynamics. The format is binding. Conditions: for ΔG^o: van't Hoff. The protocol: The steady state fluorescence emission spectra, were recorded between 300 and 500 nm at the excitation wavelength of 280 nm at three different temperatures (25, 31 and 37 °C), and both the excitation and emission slits were set at 2.5 nm. Compound 7u at different concentrations (from 0 to 6 µM) were added into the 3.0 ml solution containing a fixed amount of α-glucosidase (2μM). All of the mixtures were held for 5 min to equilibrate before measurements. The fluorescence spectra of buffer were subtracted as the background fluorescence.
as §1

Assay [8] addresses T1, α-glucosidase. The following applies: cited from earlier work.

Entries after “also recorded” stand apart in the source; their conditions may differ. Where two headings read alike, the source gives them in different places.

Chain of α-glucosidase (EC 3.2.1.20) (P53341 whole entry): as above

With `CC(=O)c1cc(Br)c(OC(=O)CCCCBr)c(Br)c1O` [7h], the “α-glucosidase inhibitory activity (in words)” value in [1] is listed as “lost the activity”.
For the compound `CC(=O)c1cc(Br)c(OC(=O)c2ccccc2[N+](=O)[O-])c(Br)c1O` [7u], in assay [2] (20 mg/kg), the “effect on postprandial blood glucose levels” value is “significantly attenuated postprandial blood glucose in mice; also recorded: obvious repressive effect on blood glucose concentrations at peaked 15 min”. Moreover, the “shift of maximum emission wavelength of Tyr residues” value at α-glucosidase [3] (Δλ = 15 nm) is “No evident shift”. Moreover, at α-glucosidase [3] (Δλ = 60 nm), the “shift of maximum emission wavelength of Trp residues” value is “noticeable red shift (from 277.5 to 286.5 nm)”. Moreover, the figures for the ΔG entry at α-glucosidase [4] and on α-glucosidase [4] (listed as 7 u) were “–39.04 kJ·mol^−1” and -9.331 kcal/mol, respectively. The ΔH at α-glucosidase [4] is -23.901 kcal/mol. The values for the ΔS result at α-glucosidase [4] and on α-glucosidase [4] (listed as 7 u) were “–204.50 J·mol^−1·K^−1” and −204.50 J·mol^−1·K^−1, respectively. The “CD negative bands at 209 and 220 nm” value on α-glucosidase [5] is given as “both intensity of the negative bands decreased”. In addition, the maximum rate (Vmax) at α-glucosidase [6] (7u 1 µM) is 1.39 ± 0.02 µM/min; on α-glucosidase [6] (7u 2 µM), 1.24 ± 0.01 µM/min; at α-glucosidase [6] (7u 4 µM), 1.04 ± 0.01 µM/min; at α-glucosidase [6] (7u 8 µM) it was 0.84 ± 0.02 µM/min. In addition, the type of inhibition entry at α-glucosidase [6] (Lineweaver–Burk plot) is given as “mixed-type inhibition”. Besides, the “inhibitory activity on intestinal α-glucosidase compared with acarbose” value in the assay on intestinal α-glucosidase (0.17 mM) was “better than that of acarbose”. Besides, in the assay on intestinal α-glucosidase (0.17 mM inhibitor, sucrose 1.5 mM), the “glucose concentration in the solution outside the intestinal sleeves” value was “decreased the glucose concentrations in the solution present outside the intestinal sleeves”. Besides, the “total concentration of glucose” value in the assay with intestinal α-glucosidase (0.17 mM inhibitor, sucrose 1.5 mM, 5–90 min, versus blank) is given as “much lower than that of the blank”. Besides, the “glucose concentration in the intestinal sleeves” value in the assay on intestinal α-glucosidase (0.17 mM inhibitor, sucrose 1.5 mM, versus blank) is given as “lower than that of blank”. Besides, the “KSV (quenching constant)” value is reported as 5.00 ± 0.04 × 10^4 L·mol^−1 at α-glucosidase [7] (25 °C), 4.74 ± 0.03 × 10^4 L·mol^−1 at α-glucosidase [7] (31 °C) and 4.31 ± 0.02 × 10^4 L·mol^−1 at α-glucosidase [7] (37 °C). Further, the “n (number of binding sites)” value on α-glucosidase [7] (25 °C) was 1.23; on α-glucosidase [7] (31 °C), 1.19; at α-glucosidase [7] (37 °C), 1.15. The “ΔG^o” value is -7.698 ± 0.014 kcal/mol at α-glucosidase [7] (25 °C), -7.488 ± 0.0072 kcal/mol on α-glucosidase [7] (31 °C) and -7.28 ± 0.0048 kcal/mol on α-glucosidase [7] (37 °C). For the same compound, at α-glucosidase [7] (KSV versus temperature), the quenching mechanism entry is given as “static quenching mechanism”. Also, the Kq at α-glucosidase [7] (fluorescence quenching) is given as ~10^12 L·mol^−1·s^−1.
Take `C[C@H]1O[C@H](O[C@H]2[C@H](O)[C@@H](O)[C@@H](O[C@H]3[C@H](O)[C@@H](O)C(O)O[C@@H]3CO)O[C@@H]2CO)[C@H](O)[C@@H](O)[C@@H]1N[C@H]1C=C(CO)[C@@H](O)[C@H](O)[C@H]1O` (stereo partly shown) [Acarbose, acarbose, reference compound]: the “effect on postprandial blood glucose levels” value in assay [2] is “at lower level than the model group”.
`CC(C)=CCC/C(C)=C/Cc1c(O)cc(O)c(C(=O)/C=C/c2ccc(O)cc2)c1O` [compound 1, 3′-geranylchalconaringenin]: the “inhibition activity against α-glucosidase compared with acarbose” value on α-glucosidase [8] (ref Sun et al. 12) is on record as “superior inhibition activity against α-glucosidase than acarbose”.
Turning to `O=c1cc(-c2ccc(O)cc2)oc2cc(O)cc(O)c12` [compound 2, apigenin], the “inhibition activity against α-glucosidase compared with acarbose” value at α-glucosidase [8] (ref Zeng et al. 13) is on record as “superior inhibition activity against α-glucosidase than acarbose”.
Turning to `CC(=O)c1cc(C)c(O)cc1O` [compound 3, 2,4-dihydroxy-5-methylacetophenone], the “α-glucosidase inhibitory activity (in words)” value in assay [1] is listed as “considerable inhibitory activity against α-glucosidase in prescreen”.
